The values that follow come from paper PMC7463632, “Conformational Restriction of Histamine with a Rigid Bicyclo[3.1.0]hexane Scaffold Provided Selective H3 Receptor Ligands” (Molecules, 2020).

Test [1] deals with T1, human histamine H3 receptor (Homo sapiens, UniProt Q9Y5N1).
T1 construct: purchased Euroscreen (Brussels, Belgium); host or cells: CHO cells (membrane preparations)
As to the kind of experiment: Radioligand binding assay with [3H]Nα-methylhistamine on CHO cell membranes expressing recombinant human H3 receptor. Conditions: for Selectivity Ratio (H4/H3): ratio of Ki H4 / Ki H3, human receptors; for Ki: human H3R, CHO cell membranes, [3H]Nα-methylhistamine, mean ± SEM (n = 3–5). How it is done: (§1) The binding affinities of 6, 7, ent-6, and ent-7 for the human H3R subtype with [^3H]N^α-methylhistamine and the human H4R subtype with [^3H]histamine were evaluated using cell membranes expressing human H3R or H4R according to the previously reported method, and the results are summarized in Table 1.
(§2) The protocol of the biological assay was according to the previous report. The membrane preparations of Chinese hamster ovary (CHO) cells, which expressed recombinant human histamine H3 or H4 receptors, were purchased from Euroscreen (Brussels, Belgium). The binding assay of the H3 and H4 receptors was performed using [^3H]N^α-methylhistamine (Perkin-Elmer, Boston, MA) and [^3H]histamine (Perkin-Elmer), respectively. Briefly, the membrane preparations (7.5–15 µg protein) were incubated with different concentrations of [^3H]N^α-methylhistamine (0.1–3 nM) and of [^3H]histamine(1–30 nM) for 30 min at 25 °C in 50 mM Tris/5 mM MgCl2 buffer (pH 7.4). The reaction was terminated by rapid filtration (Cell Harvester, Brandel Co., Gaithersburg, MD) through Whatman GF/B glass fiber filters presoaked for 2 h in 0.5% polyethyleneimine, and the filters were rinsed three times with an ice-cold buffer (2 mL). Membrane-bound radioactivity was extracted from filters overnight in scintillation fluid (toluene, 2 L; Triton X-100, 1 L; 2,5-diphenyloxazole, 15 g; 1,4-bis[2-(5-phenyloxazolyl)]benzene, 0.3 g) and determined in a liquid scintillation counter. […] The apparent dissociation constants (Kd) for each radioligand was determined by nonlinear regression analysis of the curve generated by plotting specific binding concentration versus concentration of the radioligand with GraphPad Prism (GraphPad Software, San Diego, CA) using a one-site binding curve equation. […] The inhibition constant, Ki, was calculated from the equation, Ki = IC50/(1 + L/Kd), where L equals the concentration of each radioligand. The data were presented as mean ± SE (n = 3–5).

Test [2] concerns the target T2, human histamine H4 receptor (Homo sapiens, UniProt Q9H3N8).
T2 construct: purchased Euroscreen (Brussels, Belgium); host or cells: CHO cells (membrane preparations)
Description: Radioligand binding assay with [3H]histamine on CHO cell membranes expressing recombinant human H4 receptor. Conditions: human H4R, mean ± SEM (n = 3–5). How it is done: as §1, §2

The target in test [3] is T1, human histamine H3 receptor. Conditions: cited from earlier work; for Ki: human H3R, [3H]Nα-methylhistamine, mean ± SEM; for Selectivity Ratio (H4/H3): ratio of Ki H4 / Ki H3, human receptors.
Test [4] deals with T2, human histamine H4 receptor. The arrangement: method as in PMID 16942032. Conditions: human H4R, [3H]histamine; mean ± SEM; cited from earlier work.

“And” between values parts separate entries of the source, which are not always exact repeats. Equal values may be shown once. Read-outs that look alike come from different tables or passages of the source.

T2 sequence (Q9H3N8 whole entry): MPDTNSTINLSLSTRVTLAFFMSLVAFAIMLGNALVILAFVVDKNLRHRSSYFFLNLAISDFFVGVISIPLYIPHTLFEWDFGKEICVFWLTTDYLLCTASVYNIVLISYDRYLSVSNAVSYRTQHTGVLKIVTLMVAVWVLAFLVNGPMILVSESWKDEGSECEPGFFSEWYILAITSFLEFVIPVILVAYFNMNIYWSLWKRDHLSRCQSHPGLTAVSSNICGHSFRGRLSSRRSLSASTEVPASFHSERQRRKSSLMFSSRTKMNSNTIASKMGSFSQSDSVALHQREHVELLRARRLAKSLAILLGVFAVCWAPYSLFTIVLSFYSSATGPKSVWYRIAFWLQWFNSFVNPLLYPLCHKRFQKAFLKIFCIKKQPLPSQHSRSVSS
T1 sequence (Q9Y5N1 whole entry): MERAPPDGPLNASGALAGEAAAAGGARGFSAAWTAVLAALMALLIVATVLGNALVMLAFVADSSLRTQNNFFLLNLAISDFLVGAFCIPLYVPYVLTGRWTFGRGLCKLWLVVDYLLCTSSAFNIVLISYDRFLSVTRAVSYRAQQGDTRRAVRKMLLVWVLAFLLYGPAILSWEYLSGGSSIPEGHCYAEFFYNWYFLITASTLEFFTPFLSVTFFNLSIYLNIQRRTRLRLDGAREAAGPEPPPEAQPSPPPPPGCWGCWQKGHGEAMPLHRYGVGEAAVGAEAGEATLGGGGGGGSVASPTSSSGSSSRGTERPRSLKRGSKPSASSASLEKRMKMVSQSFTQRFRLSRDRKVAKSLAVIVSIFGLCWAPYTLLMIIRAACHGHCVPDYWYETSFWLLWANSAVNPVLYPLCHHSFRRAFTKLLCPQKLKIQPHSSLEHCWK

Consider `CC[C@@H](CNCc1ccc(Cl)cc1)[C@H]1C[C@@H]1c1c[nH]cn1` [Compound 4], for which the “Selectivity Ratio (H4/H3)” value in test [1] is listed as 1.3. The inhibitory constant (Ki) in test [2] worked out at 9 ± 1 nM.

For the molecule `Clc1ccc(CNC[C@@H]2CC[C@]3(c4c[nH]cn4)C[C@H]23)cc1` [Compound 7], the inhibition constant (Ki) is 5.6 ± 1.6 nM in test [1] and 602 ± 343 nM in test [2].

Turning to `Clc1ccc(CNCC[C@@H]2C[C@@H]2c2cnc[nH]2)cc1` (single isomer, unassigned) [ent-3], the inhibition constant (Ki) in test [3] is 8.4 ± 1.5 nM; in test [4] it was 7.6 ± 0.4 nM. Moreover, the “Selectivity Ratio (H4/H3)” value in test [3] is 0.9.

With `Clc1ccc(CNCCC2CC2c2c[nH]cn2)cc1` (stereo not shown) [Compound 3], in test [3], the Ki was 3.6 ± 0.4 nM; the “Selectivity Ratio (H4/H3)” value was 10.3 and 10. For the same molecule, the Ki in test [4] was 37.2 ± 2.7 nM.

For `Clc1ccc(CNC[C@H]2CC[C@@]3(c4c[nH]cn4)C[C@@H]23)cc1` (single isomer, unassigned) [ent-7], in test [1], the inhibition constant Ki is 14.8 ± 3.8 nM and the “Selectivity Ratio (H4/H3)” value is listed as 4.7. Besides, the inhibition constant (Ki) in test [2] was 69.2 ± 21 nM.

Regarding `Cl.Cl.Clc1ccc(CNC[C@H]2CC[C@]3(c4c[nH]cn4)C[C@H]23)cc1` [Compound 6, (1S,4S,5R)-4-[N-(4-Chlorobenzyl)aminomethyl]-1-(1H-imidazol-4-yl)bicyclo[3.1.0]hexane dihydrochloride], in test [1], the inhibitory constant (Ki) came out at 31.6 ± 8.2 nM and the “Selectivity Ratio (H4/H3)” value amounted to 16. Besides, in test [2], the Ki was found to be 501 ± 201 nM.

`CC[C@H](CNCc1ccc(Cl)cc1)[C@H]1C[C@@H]1c1c[nH]cn1` [Compound 5]: the “fold lower H3R binding affinity than that of 3” value in test [1] (H3R Ki of 5 compared with 3) is “more than 15 fold”. Further, the “Selectivity Ratio (H4/H3)” value in test [1] came to 1.2. For the same molecule, the Ki in test [2] turned out to be 76.5 ± 14 nM.

Turning to `Clc1ccc(CNC[C@@H]2CC[C@@]3(c4c[nH]cn4)C[C@@H]23)cc1` (single isomer, unassigned) [ent-6], in test [1], the Ki is 21.9 ± 6 nM and the “Selectivity Ratio (H4/H3)” value amounted to 19. Also, the Ki in test [2] amounted to 416 ± 155 nM.
